Test [1] concerns TOPFlash luciferase reporter (three wild-type Tcf binding sites) in SW480. Kind of test: Wnt-responsive TOPFlash luciferase reporter assay, SW480. Format: cell-based. Particulars: 24 h treatment, mean ± SD (n = 3). As for the experimental part:
(§1) Cell transfection and luciferase assay. FuGENE6(E269A, Promega) 96 well plate format was used for the transfection of HEK293 and SW480 cells according to the manufacturer's instruction. HEK293 cells were co-transfected with 45 ng of TOPFlash reporter gene, 135 ng pc DNA3.1-β-catenin, and 20 ng of pCMV-RL normalization reporter gene. SW480 cells were co-transfected with 60 ng of the TOPFlash or FOPFlash reporter gene and 40 ng of pCMV-RL, normalization reporter. Cells were cultured in DMEM and 10% FBS at 37° C. for 24 h, and different concentrations of inhibitors or DMSO was added After 24 h, the luciferase reporter activity was measured using the Dual-Glo system (E2940, Promega). Normalized luciferase activity in response to the treatment with 1 and 2 was compared with that obtained from the cells treated with DMSO. Experiments were performed in triplicate.
On the technique in general: In a reporter assay the amount or activity of a reporter protein is the signal.

Test [2] concerns A549. Kind of test: MTs growth inhibition assay, A549. Particulars: Wnt-latent, mean ± SD (n = 3). Format: cell-based.
Test [3] relates to SW480. Kind of test: MTs cancer cell growth inhibition assay, SW480. To be noted: Wnt/β-catenin-hyperactive, 72 h, mean ± SD (n = 3). The class given is cell-based. As for the experimental part: (§2) MTs Cell Viability Assay. Colorectal cancer cell lines, SW480 and HCT116, and triple-negative breast cancer cell line MDA-MB-231 were seeded in 96-well plates at 4=10^3 cells/well, maintained overnight at 37°C., and incubated in the presence of 1 and 2 at various concentrations. Cell viability was monitored after 72 h using a freshly prepared mixture of 1 part phenazine methosulfate (PMS, Sigma) solution (0.92 mg/mL) and 19 parts 3-(4,5-dimethylthiazol-2-yl)-5-(3-carboxymethoxyphenyl)-2-(4-sulfophenyl)-2H-tetrazolium (MTs, Promega) solution (2 mg/mL). Cells were incubated in 10 μL of this solution at 37° C. for 3 h, and A490 was measured. […] Experiments were performed in triplicate.

The subject of test [4] is HCT116. Kind of test: MTs cancer cell growth inhibition assay, HCT116. To be noted: Wnt/β-catenin-hyperactive, 72 h, mean ± SD (n = 3). Format: cell-based. As for the experimental part: as §2
Test [5] has as its target β-catenin/BCL9 (Homo sapiens (Human), UniProt P35222). Nature of the test: AlphaScreen competitive inhibition assay of the β-catenin/BCL9 interaction. To be noted: read-out: Ki ± SD β-catenin/BCL9. Format: binding. As for the experimental part:
AlphaScreen Assays. All experiments were performed in shite opaque 384-well plates from PerkinElmer (Waltham, MA) with an assay buffer of 25 mM HEPES (pH=7.4), 100 Mm nAcL, 0.1% BSA, and 0.01% Triton X-100. All sample signals were read on a excitation wavelength was set at 680 nm and emission at 570 nm. All of the final reaction volumes were set to 25 μL. In the cross-titration experiments of the wild-type β-catenin//wild-ty-e BCL9 interaction, N-terminally biotinlyated BCL9 (from 0 to 60 nM) and C-terminally His6-tagged μcatenin (2.5, 5, 10, 20, 40, and 80 nM) were titrated in 20 μg/mL) were added. The mixture was then covered black and incubated at 4° C. for 1 h before detection. All addition and incubation was made under subdued lighting conditions due to the photosensitivity of the beads. The data were analyzed by nonlinear least-square analyses using GraphPad Prism 5.0. Each experiment was repeated three times, and the results were expressed as mean ±standard deviation. The competitive binding experiments were performed to determine the apparent Kd values. The rule of the competitive binding experiments for associating the IC50 value with the Kd value are: (1) the expected Kd value should be 10 times higher than the concentration of either tested protein: (2) the concentrations of both tested proteins should be lower than the binding capacities of their respective beads; and (3) the concentration of the target protein (His6-tagged β-catenin) should be 10 times lower than that of the ligand protein (biotinylated BCL9). […] The donor and acceptor beads were added to a final concentration of 10 μg/mL in 25 μL assay buffer. The mixture was covered black and incubated for 1 h at 4° C. before detection. The IC50 values, which sere also the apparent Kd values from the AlphaScreen assay, were determined by nonlinear least-square analyses using GraphPad Prism 5.0. Each experiment was repeated three times, and the results were expressed as mean ±standard deviation.
For the β-catenin/BCL9 competitive inhibition assay, 5 nM of biotinylated BCL9 and 40 nM of His6-tagged β-catenin were incubated in assay buffer at 4° C. for 30 min. Different concentrations of the tested inhibitor were added and incubated in 20 μL assay buffer at 4°C. for another 1 h. All of the above assay plates were covered and gently mixed on an orbital shaker. The donor and acceptor beads were then added to the plates to a final concentration of 10 μg/mL in 25 μL assay buffer. The mixture was incubated for 1 h at 4° C. before detection. The IC50 value was determined by nonlinear least-square analysis of GraphPad Prism 5.0. The inhibition constant (Ki) values were derived from the […] values using a method reported by Nikolovska-Coleska et al.^26. […] The results were expressed as mean ±standard deviation.
A general note: Bead proximity is the source of the signal in Alpha formats.

Test [6] has as its system MDA-MB-231. Nature of the test: MTs cancer cell growth inhibition assay, MDA-MB-231. The class given is cell-based. Particulars: Wnt/β-catenin-hyperactive, 72 h, mean ± SD (n = 3). As for the experimental part: as §2
Test [7] relates to TOPFlash luciferase reporter (three wild-type Tcf binding sites) in β-catenin-activated HEK239. Kind of test: Wnt-responsive TOPFlash luciferase reporter assay, β-catenin-activated HEK293. Format: cell-based. To be noted: 24 h treatment, mean ± SD (n = 3). As for the experimental part:
as §1

Setting [8] is: AlphaScreen, mean ± standard deviation (n = 3), Ki derived from IC50.

Structures are written as SMILES. Structures can show the parent of a compound that is named as a salt. Where two headings read alike, the source gives them in different places.

Sequence of β-catenin/BCL9 (P35222 whole entry): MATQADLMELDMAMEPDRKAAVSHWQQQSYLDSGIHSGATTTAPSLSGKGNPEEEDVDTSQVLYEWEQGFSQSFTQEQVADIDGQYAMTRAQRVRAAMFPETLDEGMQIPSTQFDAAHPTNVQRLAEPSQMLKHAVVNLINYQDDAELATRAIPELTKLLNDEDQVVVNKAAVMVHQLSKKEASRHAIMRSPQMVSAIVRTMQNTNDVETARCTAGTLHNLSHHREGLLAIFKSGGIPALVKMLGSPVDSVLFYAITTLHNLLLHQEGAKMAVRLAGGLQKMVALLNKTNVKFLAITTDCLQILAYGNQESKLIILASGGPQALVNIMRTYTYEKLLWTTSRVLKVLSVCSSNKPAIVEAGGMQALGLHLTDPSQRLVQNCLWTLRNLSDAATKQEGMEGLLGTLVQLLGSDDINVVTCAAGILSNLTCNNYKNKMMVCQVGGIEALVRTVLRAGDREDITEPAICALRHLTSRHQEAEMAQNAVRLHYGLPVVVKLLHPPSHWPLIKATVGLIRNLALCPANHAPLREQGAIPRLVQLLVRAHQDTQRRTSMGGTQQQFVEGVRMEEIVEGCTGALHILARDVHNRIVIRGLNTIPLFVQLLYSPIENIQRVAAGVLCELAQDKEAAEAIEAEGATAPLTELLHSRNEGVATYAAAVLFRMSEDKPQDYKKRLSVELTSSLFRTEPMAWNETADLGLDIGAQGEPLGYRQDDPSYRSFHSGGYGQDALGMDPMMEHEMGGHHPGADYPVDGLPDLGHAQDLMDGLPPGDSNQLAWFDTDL

`Fc1ccc(-c2cc(-c3ccc4cc(O[C@H]5CCNC5)c(-c5ccc(F)c(F)c5)cc4n3)ccc2O[C@H]2CCNC2)cc1` [Compound 1, 7-(3,4-difluorophenyl)-2-(4′-fluoro-6-((S)-pyrrolidin-3-yloxy)-[1,1′-biphenyl]-3-yl)-6-((S)-pyrrolidin-3-yloxy)quinoline dihydrochloride]: the IC50 (commonly the concentration needed to halve the response being measured) in test [1] (Homo sapiens, SW480) amounted to 12 ± 1.5 µM; in test [2] (Homo sapiens, A549) it was 23 ± 4.4 µM; in test [3] (Homo sapiens, SW480), 3.6 ± 1.9 µM; in test [4] (Homo sapiens, HCT-116), 9.6 ± 2.5 µM; in test [6] (Homo sapiens, MDA-MB-231) it was 15 ± 6.1 µM; in test [7] (HEK239) it was 26 ± 3.1 µM. In addition, the Ki in test [5] came to 8 ± 1.8 µM.
Take `Fc1ccc(-c2cc(-c3cnc4cc(O[C@H]5CCNC5)c(-c5ccc(F)c(F)c5)cc4c3)ccc2O[C@H]2CCNC2)cc1` [Compound 2, 6-(3.4-difluorophenyl)-3-(4′-fluoro-6-((S)-pyrrolidin-3-yloxy)-[1,1′-biphenyl]-3-yl)-7-((S)-pyrrolidin-3-yloxy)quinoline dihydrochloride]: the IC50 in test [1] (Homo sapiens, SW480) is 7.9 ± 1.4 µM; in test [2] (Homo sapiens, A549), 7.5 ± 2.9 µM; in test [3] (Homo sapiens, SW480) it was 1.7 ± 0.9 µM; in test [4] (Homo sapiens, HCT-116), 2.2 ± 1 µM; in test [6] (Homo sapiens, MDA-MB-231) it was 3.1 ± 1.2 µM; in test [7] (HEK239), 14 ± 1.5 µM.
With `O=C(Nc1ccc(O[C@H]2CCNC2)c(-c2ccc(F)cc2)c1)c1ccc(O[C@H]2CCNC2)c(C2CCCCC2)c1` [Compound 3, 3-cyclohexyl-N-(4′-fluoro-6-(((S)-pyrrolidin-3-yl)oxy)-[1,1′-biphenyl]-3-4-(((S)-pyrrolidin-3-yl)oxy)benzamidedihydrochloride], the results for the half-maximal inhibitory concentration (IC50) in test [2], in test [3] and in test [4] were 3.8 ± 1.5 µM, 6.6 ± 2.7 µM and 3.8 ± 1.5 µM, respectively. The Ki in test [5] (setting [8]) stood at 14 ± 1.6 µM.
Take `O=C(Nc1ccc(O[C@H]2CCNC2)c(-c2ccc(F)cc2)c1)c1ccc(O[C@H]2CCNC2)c(C2=CCCCC2)c1` [Compound 4, N-(4^+-fluoro-6-(((S)-pyrrolidin-3-yl)oxy)-[1,1′-biphenyl]-6-(((S)-pyrrolidin-3-yl)oxy)-2′,3′,4′,5′-tetrahydro-[1.1′-biphenyl]-3-carboxamidedihydrochloride]: the IC50 amounted to 8.7 ± 2.3 µM in test [1]; 8.9 ± 2.7 µM in test [2]; 3.7 ± 2 µM in test [3]; 6.9 ± 3.2 µM in test [4]; 3.4 ± 1.6 µM in test [6]. For the same molecule, the Ki in test [5] (setting [8]) was 7.1 ± 2.5 µM.
Turning to `O=C(Nc1ccc(O[C@H]2CCNC2)c(-c2ccc(F)cc2)c1)c1ccc(O[C@H]2CCNC2)c(C2CCC(C(F)(F)F)CC2)c1` (stereo partly drawn) [Compound 5, N-(-4′-fluoro-6-(((S)-pyrrolidin-3-yl)oxy)-[1,1′-biphenyl]-3-yl)-4-(((S)-pyrrolidin-3-yl)oxy)-3-(4-(trifluoromethyl)cyclohexyl) benzamide dilydrocholoride], the IC50 in test [1] came to 10 ± 3.3 µM; in test [2] it was 4.8 ± 2.4 µM; in test [3], 3.6 ± 2.7 µM; in test [4] it was 5.6 ± 2.7 µM; in test [6], 2.3 ± 1 µM; in test [7], 10 ± 3.2 µM. Further, the Ki in test [5] (setting [8]) amounted to 4.2 ± 2.3 µM.

(Values after patent US11905273B2, “Inhibitors for the B-catenin/B-cell lymphoma 9 (BCL9) protein-protein interaction” (H. LEE MOFFITT CANCER CENTER AND RESEARCH INSTITUTE, INC., priority 2017, dated 2024).)
